Twelve molecules from ChEMBL document CHEMBL1131439, “Prediction of binding affinities for TIBO inhibitors of HIV-1 reverse transcriptase using Monte Carlo simulations in a linear response method” (J Med Chem, 1998) can be followed below.

For this assay, the target named is Human immunodeficiency virus type 1 reverse transcriptase (Human immunodeficiency virus 1, UniProt Q72547). Briefly: Inhibition of HIV-1 reverse transcriptase.
As usually defined, the IC50 is the midpoint of a concentration-inhibition curve. `CC(C)=CCN1Cc2cccc3nc(O)n(c23)C[C@@H]1C` yielded an IC50 of 3.16 µM.

As to `CC(C)=CCN1Cc2c(C)ccc3[nH]c(=S)n(c23)C[C@@H]1C`, the IC50 is 0.0136 µM.

As to `C#Cc1ccc2[nH]c(=O)n3c2c1CN(CC=C(C)C)[C@@H](C)C3`, the IC50 was determined as 0.437 µM. Compared with the last molecule, the IC50 is about 32-fold higher.

`C#Cc1ccc2[nH]c(=S)n3c2c1CN(CC=C(C)C)[C@@H](C)C3` registered an IC50 of 0.0295 µM.

Take `CC(C)=CCN1Cc2c(F)ccc3[nH]c(=S)n(c23)C[C@@H]1C`: the IC50 turned out to be 0.0058 µM.

In turn, `COc1ccc2[nH]c(=S)n3c2c1CN(CC=C(C)C)[C@@H](C)C3` returned a 50% inhibitory concentration (IC50) of 0.0339 µM. Compared with the last molecule, the IC50 is about 5.8-fold higher.

Molecule `CC(C)=CCN1Cc2c(C#N)ccc3[nH]c(=S)n(c23)C[C@@H]1C` came in with a concentration for half-maximal inhibition (IC50) of 0.0563 µM.

For the molecule `CC(C)=CCN1Cc2c(C#N)ccc3[nH]c(=O)n(c23)C[C@@H]1C`, inhibition was half-maximal at 1.14 µM (IC50).

With `CC(C)=CCN1Cc2cc(Cl)cc3[nH]c(=S)n(c23)C[C@@H]1C`, the 50% inhibitory concentration (IC50) worked out at 0.034 µM.

Turning to `CC(C)=CCN1Cc2c(Cl)ccc3[nH]c(=S)n(c23)C[C@@H]1C` [TIVIRAPINE], the IC50 was found to be 0.0043 µM.

Molecule `CC(C)=CCN1Cc2c(C)ccc3[nH]c(=O)n(c23)C[C@@H]1C` came in with an IC50 of 0.989 µM. This IC50 lies about 230-fold higher than the previous one.

Regarding `CC(C)=CCN1Cc2cccc3[nH]c(=S)n(c23)C[C@@H]1C`, the IC50 came to 0.044 µM.
